# Test results reported in patent US12421249B2, “Inhibitors of APOL1 and methods of using same” (Vertex Pharmaceuticals Incorporated, priority 2020, dated 2025).
# Read-outs that look alike come from different tables or passages of the source.
# Legend:
# APOL1 = molecular target: T1, APOL1 (Homo sapiens, UniProt O14791); assay: Multi-Tox Assay (MultiTox-Fluor Multiplex Cytotoxicity Assay in tet-inducible APOL1 T-REx-HEK293 cells; Table 46 does not say which APOL1 variant G0/G1/G2); format: cell-based; settings: APOL1 variant not given; for IC50: IP50 = IC50 for cell proliferation
# T1 sequence (O14791 1-398 S342G/I384M): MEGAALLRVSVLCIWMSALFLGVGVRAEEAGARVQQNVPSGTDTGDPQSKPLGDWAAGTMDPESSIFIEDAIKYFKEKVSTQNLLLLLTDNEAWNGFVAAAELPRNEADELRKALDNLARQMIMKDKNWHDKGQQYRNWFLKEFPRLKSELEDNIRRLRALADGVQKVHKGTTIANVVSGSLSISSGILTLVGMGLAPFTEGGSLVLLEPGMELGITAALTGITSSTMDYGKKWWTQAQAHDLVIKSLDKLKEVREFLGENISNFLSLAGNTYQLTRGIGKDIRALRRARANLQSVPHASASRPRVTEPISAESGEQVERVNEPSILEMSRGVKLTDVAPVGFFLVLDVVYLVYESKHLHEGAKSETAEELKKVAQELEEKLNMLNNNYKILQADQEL
# APOL1 G1 = molecular target: T2, APOL1 G1 (Homo sapiens, UniProt O14791, I384M/S342G); assay: Trypanosoma brucei brucei Lysis Assay Using APOL1 Recombinant Protein (AlamarBlue viability readout); format: cell-based; settings: for IC50: IP50 = IC50 for cell proliferation, read-out: Trypanosome Assay IP50; for Emax: read-out: Trypanosome Assay Max Activity (%)
# T2 sequence (O14791 28-398 S342G/I384M): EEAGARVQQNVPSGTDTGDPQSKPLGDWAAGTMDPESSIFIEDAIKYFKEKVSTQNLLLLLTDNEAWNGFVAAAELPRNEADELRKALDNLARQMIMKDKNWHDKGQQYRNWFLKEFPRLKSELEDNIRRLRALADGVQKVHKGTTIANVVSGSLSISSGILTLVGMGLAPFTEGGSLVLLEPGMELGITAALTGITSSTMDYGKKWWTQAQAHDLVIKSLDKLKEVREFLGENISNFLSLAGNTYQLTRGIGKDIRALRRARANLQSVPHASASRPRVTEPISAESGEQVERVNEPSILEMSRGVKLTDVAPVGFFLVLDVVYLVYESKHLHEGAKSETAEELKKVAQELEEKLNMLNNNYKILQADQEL
# In short: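 Percent viability comes from AlamarBlue (resazurin→resorufin) fluorescence interpolated on a standard curve of known parasite numbers, with no-APOL1 wells as 100%. Parasites (Lister 427 bloodstream form, 120,000/well, serum-free assay medium) meet 0.05 μg/mL APOL1 (~EC90). Compounds span a 10-point series, 0.1% DMSO final.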
SMILES,Multi-Tox Assay Max Activity (%) (APOL1),IC50 (APOL1) [nM],IC50 (APOL1 G1; Trypanosome Assay) [nM],Emax (APOL1 G1; Trypanosome Assay) [%],IC90 (APOL1) [nM],Trypanosome Assay Max Activity (%) (APOL1 G1; Trypanosome Assay),Emax (APOL1 G1) [%]
Cc1cc([C@@H]2C[C@]3(C[C@H](C)N2)OCCc2cc(Cl)sc23)nn1C (racemic) [Compound 98],99.0,< 50,< 50,110,–,–,–
CCOc1cc([C@@H]2C[C@]3(C[C@H](C)N2)OCCc2cc(Cl)sc23)ccc1O (racemic) [Compound 102],99.8,< 50,< 50,112,–,–,–
C[C@H]1C[C@@]2(C[C@@H](c3cccc(C#N)n3)N1)OCCc1cc(Cl)sc12 (racemic) [Compound 53],99.3,< 50,50 to 500,106,–,–,–
CC1CC2(CC(C3CC3)N1)OCCc1cc(Cl)sc12 (mixture of isomers) [Compound 217],–,< 50,< 50,110,–,–,–
C[C@H]1C[C@@]2(C[C@@H](c3cnc(C4CC4)nc3)N1)OCCc1cc(Cl)sc12 (racemic) [Compound 52],99.7,< 50,< 50,104,–,–,–
Cc1nocc1[C@@H]1C[C@]2(C[C@H](C)N1)OCCc1cc(Cl)sc12 (racemic) [Compound 132],99.3,50 to 500,50 to 500,91.5,–,–,–
C[C@H]1C[C@@]2(C[C@@H](c3cccc4[nH]c(=O)oc34)N1)OCCc1cc(Cl)sc12 (racemic) [Compound 141],–,50 to 500,50 to 500,90,–,–,–
Cc1cc([C@@H]2C[C@]3(C[C@H](C)N2)OCCc2cc(Cl)sc23)nc(N(C)C)n1 (racemic) [Compound 138],98.0,50 to 500,50 to 500,104,–,–,–
CC1COC2(C[C@@H](c3cn(C)nn3)N[C@@H](C)C2)c2cc(Cl)sc21 (stereo in doubt) [Compound 13],99.0,< 50,< 50,–,< 50,100.0,–
C[C@H]1C[C@@]2(C[C@@H](c3cnc4c(cnn4C)c3)N1)OCCc1cc(Cl)sc12 (racemic) [Compound 26],100.0,< 50,< 50,110,–,–,–
"CC(C)c1cc2c(s1)C1(C[C@@H](C)N[C@@H](C)C1)OCC2 (single isomer, unassigned) [Compound 200]",–,50 to 500,50 to 500,–,–,–,98.7
C[C@H]1C[C@@]2(C[C@@H](c3cnc4n3CCOC4)N1)OCCc1cc(Cl)sc12 (racemic) [Compound 149],–,50 to 500,> 500,95,–,–,–
Cc1cc(O)ncc1[C@@H]1C[C@]2(C[C@H](C)N1)OCCc1cc(Cl)sc12 (racemic) [Compound 125],99.7,< 50,50 to 500,103,–,–,–
C[C@H]1C[C@@]2(C[C@@H](c3cnn4ccccc34)N1)OCCc1cc(Cl)sc12 (racemic) [Compound 117],99.0,< 50,< 50,101,–,–,–
C[C@H]1C[C@@]2(C[C@@H](c3cccc(-c4cn[nH]c4)c3)N1)OCCc1cc(Cl)sc12 (racemic) [Compound 148],97.0,50 to 500,50 to 500,92.5,–,–,–
Cc1ncc([C@@H]2C[C@]3(C[C@H](C)N2)OCCc2cc(Cl)sc23)o1 (racemic) [Compound 94],–,< 50,< 50,104,–,–,–
CC1CC2(CC(c3ccc4c(c3)oc(=O)n4C)N1)OCCc1cc(Cl)sc12 (centres unmarked) [Compound 23],99.7,< 50,< 50,116,< 50,–,–
"CC1CC2(CC(C3CC3(F)F)N1)OCCc1cc(Cl)sc12 (single isomer, unassigned) [Compound 212]",–,< 50,< 50,101,–,–,–
